Measured values published in paper PMC11555673, “Modulators of the Hop-HSP90 Protein–Protein Interaction Disrupt KSHV Lytic Replication” (ACS Infectious Diseases, 2024).
Where no end group is shown, it is not given here. [ ]: non-standard residue; d: D form. SulfoLink = iodoacetyl-modified agarose resin; Mpa = O=C(O)CCS

Key:
HopTPR2A–HSP90CTD PPI = assay: ELISA-based solid-phase HopTPR2A–HSP90CTD PPI inhibitory assay; assay type: biochemical; settings: SAR, Figures 2 and 3; peptide 1 as control
CDK4 = assay: Western blot of HSP90 client CDK4 in reactivated TREx-BCBL-1-RTA cells; assay type: cell-based; settings: Figures 7C and S4
Description: The remaining TREx-BCBL-1-RTA cells (after cell viability assay) were harvested and washed twice with ice-cold PBS (pH 7.4). […] Bicinchoninic acid (BCA) protein quantification assay was used to determine the concentration of protein in the lysates. An equal amount of protein samples was denatured in Laemmli SDS loading buffer at 95 °C for 5 min. An equal volume of the denatured protein samples was resolved by SDS-PAGE and transferred to nitrocellulose membranes using the complete Bio-Rad Trans-Blot Turbo Transfer System (Bio-Rad, California). […] The membranes were incubated in an appropriate primary antibody. The primary antibodies used in this study were mouse anti-ORF57 (207.6) monoclonal antibody (Santa Cruz Biotechnology, sc-135746), mouse […]) monoclonal antibody (Novus Biologicals, NB200-167SS), rabbit anti-Hop monoclonal antibody (Abcam, ab126724), mouse anti-Hsp90α/β (F-8) monoclonal antibody (Santa Cruz, sc-13119), anti-CDK4 antibody [EPR4513-32-7] (Abcam, Ab108357), rabbit anti-β-actin [EPR2124] monoclonal antibody (Abcam, Ab213262), and HRP-conjugated anti-GAPDH antibody (EPR6256) (Abcam, ab185059). The membranes were washed three times using TBST and incubated in an appropriate secondary antibody. […]

[1] = system: KSHV-infected TREx-BCBL-1-RTA cells
KSHV vIRF3 = assay type: cell-based
Hop = assay: Pulldown from HeLa cell lysates with resin-supported peptides, Western blot for Hop; assay type: binding; settings: incubated overnight with resin-supported peptide, densitometry
HSP90 = assay: Pulldown from HeLa cell lysates with resin-supported peptides, Western blot for HSP90; assay type: binding; settings: full-length Hop IP experiments

In the case of LWWPD [Peptide 12], the “HopTPR2A–HSP90CTD PPI disruption activity (in words)” value (HopTPR2A–HSP90CTD PPI) is reported as “weak to moderate activity”.
With “CPP-MAAVD (disulfide) [CPP-19, MAAVD containing control tethered to the Arg-8 CPP via disulfide linkage]” the “Levels of HSP90 client CDK4” value (CDK4) was “same effect was not seen”, the “ORF57 expression, dose-dependent analysis” value (KSHV ORF57) was “no effect on either” and the Cytotoxicity [1] was “negligible cytotoxicity”. For the same substance, the “vIRF3 expression, dose-dependent analysis” value (KSHV vIRF3) was “no effect on either”.
For “IP-5: weakly active peptide 5 immobilized on SulfoLink resin, control (SulfoLink-[Mpa]MEDVE)”, the “Hop in elution after pulldown” value (Hop) was “only trace amounts of Hop” and the “HSP90 in elution after pulldown” value (HSP90) was “not observed”.
